Data as given in PMC7961618, “Inhibitor Development against p7 Channel in Hepatitis C Virus” (Molecules, 2021).
Read-outs that look alike come from different tables or passages of the source.

How the values were obtained:
p7 (5a) protein = p7 (5a) protein (Hepatitis C virus genotype 5a (Hepacivirus hominis), UniProt O39928, A759S/C749A/C774T/C791S/T748G); experiment: NMR titration (2D 1H-15N TROSY-HSQC chemical shift perturbation) for Kd; format: binding; settings: for Kd: read-out: Kd GT5a
[1] = system: HCV (JFH1 strain with adaptive mutations); format: cell-based; settings: for viral production kinetics versus mock control: 20 μM, supernatant at 2, 6, 12 and 24 h post-incubation; for IC50 against HCV compared with Rim: Huh7.5.1 cells, JFH1, 12 h
Huh7.5.1 cells = experiment: CellTiter-Glo cell viability and cytotoxicity assay; settings: 12 h incubation
Description: (§1) (B) After incubation with each compound, the cell viability and cytotoxicity were detected by CellTiter-Glo® Luminescent Cell Viability Assay reagent (Promega GS7570, Madison, WI, USA). […] Data were presented as the percentage of mock treatment control. […] Two independent experiments were repeated showing similar results.
(§2) Cell viability and cytotoxicity were detected by CellTiter-Glo® Luminescent Cell Viability Assay reagent (Promega GS7570, Madison, WI, USA). Briefly, Huh7.5.1 cells were seeded at a density of 80,000 cells per well in 24-well microplates and allowed to attach and grow overnight. The next day, the cell-culture media with serially diluted compounds in 0.5% DMSO or mock were added to the cells. After 12 h of incubation, cells were collected and lysed for the cell cytotoxicity assay.

[2] = as above; settings: human, Huh7.5.1 cells
Description: as §1, §2

HCV genotype 3 = system: HCV genotype 3; set-up: method as in PMID 27783808; settings: cited from earlier work
hepatoma cell lines = system: hepatoma cell lines; set-up: method as in PMID 18828153; settings: cited from earlier work
HCV = system: HCV; set-up: method as in PMID 18828153; settings: cited from earlier work
[3] = apparent Kd from chemical shift changes of Val7 or Leu8, 0.1 mM 15N-p7 (5a) in 20 mM DPC, 30 °C

Sequence of p7 (5a) protein (O39928 748-810 T748G/C749A/A759S/C774T/C791S): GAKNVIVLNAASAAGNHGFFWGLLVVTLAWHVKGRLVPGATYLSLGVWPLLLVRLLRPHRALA

## CCNC(C)C12CC3CC(CC(C3)C1)C2 (stereo not shown) [ARD1]
p7 (5a) protein; [3]
  Kd: 487 µM

## NC(CNC(=O)CCOCCOCCOCCOCCOCCOCCC(=O)NCC(N)C12CC3CC(CC(C3)C1)C2)C12CC3CC(CC(C3)C1)C2 (stereo not shown) [ARD83]
p7 (5a) protein; [3]
  Kd: 70 µM

## Oc1ccc(CNC23CC4CC(CC(C4)C2)C3)c(O)c1 [ARD89]
p7 (5a) protein; [3]
  Kd: 112 µM

## CC1(NCc2nnc(-c3cc(O)cc(O)c3)[nH]2)C2CC3CC(C2)CC1C3 (stereo not shown) [ARD112]
[1]
  viral production kinetics versus mock control: suppress the viral production
  IC50 against HCV compared with Rim: about two-fold lower than that of Rim
p7 (5a) protein; [3]
  Kd: 5 µM
p7 (5a) protein; from NMR Kd values, p7 (5a)
  binding strength relative to the best dimeric compound ARD87: ~ 10 fold
Huh7.5.1 cells
  cytotoxicity compared with Rim: comparable to Rim
[2]
  CC50 at 12 h: > 100 µM

## CNC(C(N)=O)C12CC3CC(CC(C3)C1)C2 (stereo not shown) [ARD8]
p7 (5a) protein; [3]
  Kd: 707 µM

## OCC1(CNCc2cc(C3CC3)on2)C2CC3CC(C2)CC1C3 (stereo not shown) [ARD101]
p7 (5a) protein; [3]
  Kd: 105 µM

## NC(CNC(=O)CCOCCOCCOCCOCCOCCOCCOCCC(=O)NCC(N)C12CC3CC(CC(C3)C1)C2)C12CC3CC(CC(C3)C1)C2 (stereo not shown) [ARD84]
p7 (5a) protein; [3]
  Kd: 58 µM

## NC(CNC(=O)CCOCCOCCOCCC(=O)NCC(N)C12CC3CC(CC(C3)C1)C2)C12CC3CC(CC(C3)C1)C2 (stereo not shown) [ARD80]
p7 (5a) protein; [3]
  Kd: 102 µM

## NC12CC3CC(CC(C3)C1)C2 [Amantadine]
HCV genotype 3
  inhibition of genotype 3: could not inhibit genotype 3

## NC(CNC(=O)CCOCCC(=O)NCC(N)C12CC3CC(CC(C3)C1)C2)C12CC3CC(CC(C3)C1)C2 (stereo not shown) [ARD87]
[1]
  viral production kinetics versus mock control: suppress the viral production
  IC50 against HCV compared with Rim: about two-fold lower than that of Rim
p7 (5a) protein
  Kd: 43 µM
Huh7.5.1 cells
  cytotoxicity compared with Rim: significantly higher than Rim

## CNC(CO)C12CC3CC(CC(C3)C1)C2 (stereo not shown) [ARD6]
p7 (5a) protein; [3]
  Kd: 344 µM

## Cc1ccc(CNCC2(CO)C3CC4CC(C3)CC2C4)cn1 (stereo not shown) [ARD100]
p7 (5a) protein; [3]
  Kd: 107 µM

## Cc1cc(CNCC2(CO)C3CC4CC(C3)CC2C4)ccn1 (stereo not shown) [ARD99]
p7 (5a) protein; [3]
  Kd: 852 µM

## OCC1(CNCc2cc(-c3ccccc3)on2)C2CC3CC(C2)CC1C3 (stereo not shown) [ARD98]
p7 (5a) protein; [3]
  Kd: 102 µM

## NC(CNC(=O)CCOCCOCCOCCOCCC(=O)NCC(N)C12CC3CC(CC(C3)C1)C2)C12CC3CC(CC(C3)C1)C2 (stereo not shown) [ARD81]
p7 (5a) protein; [3]
  Kd: 81 µM

## CNC(=O)C(NC)C12CC3CC(CC(C3)C1)C2 (stereo not shown) [ARD9]
p7 (5a) protein; [3]
  Kd: 418 µM

## NC(C(F)F)C12CC3CC(CC(C3)C1)C2 (stereo not shown) [ARD71]
p7 (5a) protein; [3]
  Kd: 2460 µM

## CCC(NC)C12CC3CC(CC(C3)C1)C2 (stereo not shown) [ARD2]
p7 (5a) protein; [3]
  Kd: 334 µM

## CC(N)C12CC3CC(CC(C3)C1)C2 (stereo not shown) [Rimantadine, reference compound]
Hepatoma cell lines
  cytotoxicity against hepatoma cell lines: no significant cytotoxicity
HCV
  anti-HCV activity: moderate anti-HCV activity
[1]
  viral production kinetics versus mock control: suppress the viral production
p7 (5a) protein
  Kd: 98 µM
[2]
  CC50 at 12 h: > 100 µM
